Like-named read-outs stand apart in the source and are kept apart here.
Molecular target: T1, Rhesus PDE2A3 (Macaca mulatta, UniProt B3VTJ2)
T1 construct: made in house; host or cells: AD293 cells, transient transfection, pcDNA3.3-TOPO; lysate supernatant used as enzyme
T1 sequence (B3VTJ2 1-941): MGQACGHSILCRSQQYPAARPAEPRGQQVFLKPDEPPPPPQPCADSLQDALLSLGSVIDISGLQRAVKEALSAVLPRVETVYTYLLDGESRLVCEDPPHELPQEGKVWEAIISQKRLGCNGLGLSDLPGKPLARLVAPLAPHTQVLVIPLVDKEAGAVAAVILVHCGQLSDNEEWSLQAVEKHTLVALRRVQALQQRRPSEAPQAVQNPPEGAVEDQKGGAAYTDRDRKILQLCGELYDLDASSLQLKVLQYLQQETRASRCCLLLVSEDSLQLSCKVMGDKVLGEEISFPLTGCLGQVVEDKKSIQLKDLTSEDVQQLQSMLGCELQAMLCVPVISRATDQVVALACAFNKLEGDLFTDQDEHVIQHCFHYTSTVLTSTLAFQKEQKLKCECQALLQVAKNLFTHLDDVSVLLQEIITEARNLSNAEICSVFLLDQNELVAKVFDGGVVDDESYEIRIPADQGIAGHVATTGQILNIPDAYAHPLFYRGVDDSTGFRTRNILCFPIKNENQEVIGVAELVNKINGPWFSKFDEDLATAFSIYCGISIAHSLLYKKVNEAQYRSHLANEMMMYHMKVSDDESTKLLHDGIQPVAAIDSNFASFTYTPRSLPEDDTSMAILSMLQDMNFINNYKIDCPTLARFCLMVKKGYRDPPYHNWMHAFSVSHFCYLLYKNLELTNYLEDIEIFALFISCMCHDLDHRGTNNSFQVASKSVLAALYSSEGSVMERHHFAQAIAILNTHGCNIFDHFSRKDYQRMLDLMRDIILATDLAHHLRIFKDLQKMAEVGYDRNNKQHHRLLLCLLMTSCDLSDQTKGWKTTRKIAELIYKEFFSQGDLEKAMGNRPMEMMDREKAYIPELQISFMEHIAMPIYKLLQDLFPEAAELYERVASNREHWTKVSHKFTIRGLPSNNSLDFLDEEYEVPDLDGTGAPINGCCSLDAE
Assay: PDE2 fluorescence polarization (IMAP FP) inhibition assay, rhesus enzyme
Format: biochemical, rhesus macaque
How it was run: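 Lysate of AD293 cells transiently expressing rhesus PDE2A3, diluted for ~20% substrate conversion, with 50 nM FAM-cAMP and 1 uM cGMP activator in pH 7.2 Tris/MgCl2 buffer, 60 min at room temperature.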

[1] = Lab A, read-out: Rhesus PDE2 Ki (nM) Lab A
[2] = Lab B, read-out: Rhesus PDE2 Ki (nM) Lab B

| SMILES | Ki [1] [nM] | Ki [2] [nM] |
| --- | --- | --- |
| CCc1ccc(C(C)n2cc(-c3cc(=O)[nH]c(C)n3)cn2)c(F)c1 (single isomer, unassigned) [Example 101, (R)- or (S)-6-(1-(1-(4-ethyl-2-fluorophenyl)ethyl)-1H-pyrazol-4-yl)-2-methylpyrimidin-4(3H)-one] | 25.4 |  |
| Cc1nc(-n2cc(C(C)c3ccc(C4CC4)cc3)cn2)cc(=O)[nH]1 (centres unmarked) [Example 39, 6-(4-(1-(4-cyclopropylphenyl)ethyl)-1H-pyrazol-1-yl)-2-methylpyrimidin-4(3H)-one] |  | 99.9 |
| Cc1nc(-c2cnn(C(C)c3ccc(S(F)(F)(F)(F)F)cc3)c2)cc(=O)[nH]1 (single isomer, unassigned) [Example 62, (R)- or (S)-2-methyl-6-(1-(1-(4-(pentafluorosulfanyl)phenyl)ethyl)-1H-pyrazol-4-yl)pyrimidin-4(3H)-one] |  | 143 |
| Cc1nc(-c2cnn(C(C)c3ccc(OC(F)(F)F)cc3)c2)cc(=O)[nH]1 (single isomer, unassigned) [Example 127, (R)- or (S)-2-methyl-6-(1-(1-(4-(trifluoromethoxy)phenyl)ethyl)-1H-pyrazol-4-yl)pyrimidin-4(3H)-one] |  | 130 |
| Cc1nc(-n2cc(C(c3ccc(C(F)(F)F)cc3)C(C)C)cn2)cc(=O)[nH]1 (centres unmarked) [Example 130] |  | 138 |
| Cc1nc(-n2cc([C@]3(c4ccc(C(F)(F)F)cc4)CCCO3)cn2)cc(=O)[nH]1 (single isomer, unassigned) [Example 21] |  | 213 |
| CCC(c1ccc(C(F)(F)F)cc1F)n1cc(-c2cc(=O)[nH]c(C)n2)cn1 (centres unmarked) [Example 33, 6-(1-(1-(2-fluoro-4-(trifluoromethyl)phenyl)propyl)-1H-pyrazol-4-yl)-2-methylpyrimidin-4(3H)-one] | 36.6 | 19.7 |
| Cc1nc(-n2cc([C@]3(c4ccc(C(F)(F)F)cc4)CCCO3)cn2)cc(=O)[nH]1 (single isomer, unassigned) [Example 22] |  | 41.9 |
| CCCC(c1ccc(C(F)(F)F)cc1)n1cc(-c2cc(=O)[nH]c(C)n2)cn1 (centres unmarked) [Example 154, 2-methyl-6-(1-(1-(4-(trifluoromethyl)phenyl)butyl)-1H-pyrazol-4-yl)pynmidin-4(3H)-one] |  | 244 |
| COc1ccc(Cc2nc(-c3cnn(C(C)c4ccc(C(F)(F)F)cc4)c3)cc(=O)[nH]2)cc1OC (single isomer, unassigned) [Example 61, (S)- or (R)-2-(3,4-dimethoxybenzyl)-6-(1-(1-(4-(trifluoromethyl)phenyl)ethyl)-1H-pyrazol-4-yl)pyrimidin-4(3H)-one] | 2 | 1.8 |
| CC(c1ccc(C(F)(F)F)cc1F)n1cc(-c2cc(=O)[nH]c(C3CC3)n2)cn1 (centres unmarked) [Example 10] | 25 |  |
| Cc1nc(-c2cn(C(C)c3ccc(C(F)(F)F)cc3)nc2C)cc(=O)[nH]1 (centres unmarked) [Example 80, 2-methyl-6-(3-methyl-1-(1-(4-(trifluoromethyl)phenyl)ethyl)-1H-pyrazol-4-yl)pyrimidin-4(3H)-one] |  | 194 |
| COc1ccc(Cc2nc(-c3cnn(C(C)c4ccc(C(F)(F)F)cc4F)c3)cc(=O)[nH]2)cc1F (single isomer, unassigned) [Example 146, (R)- or (S)-6-(1-(1-(2-fluoro-4-(trifluoromethyl)phenyl)ethyl)-1H-pyrazol-4-yl)-2-(3-fluoro-4-methoxybenzyl)pyrimidin-4(3H)-one] | 31.5 |  |
| Cc1nc(-n2cc(C(C)c3ccc(C4(C)CC4)cc3)cn2)cc(=O)[nH]1 (centres unmarked) [Example 40, 2-methyl-6-(4-(1-(4-(1-methylcyclopropyl)phenyl)ethyl)-1H-pyrazol-1-yl)pyrimidin-4(3H)-one] |  | 211 |
| COc1cc(Cc2nc(-c3cnn(C(C)c4ccc(C(F)(F)F)cc4F)c3)cc(=O)[nH]2)ccc1F (single isomer, unassigned) [Example 142, (R)- or (S)-2-(4-fluoro-3-methoxybenzyl)-6-(1-(1-(2-fluoro-4-(trifluoromethyl)phenyl)ethyl)-1H-pyrazol-4-yl)pyrimidin-4(3H)-one] | 3.3 | 1.4 |
| CCC(c1ccc(C(F)(F)F)cc1)c1cnn(-c2cc(=O)[nH]c(C)n2)c1 (centres unmarked) [Example 129, 2-methyl-6-(4-(1-(4-(trifluoromethyl)phenyl)propyl)-1H-pyrazol-1-yl)pyrimidin-4(3H)-one] |  | 184 |

| SMILES | Ki [1] [nM] | Ki [2] [nM] |
| --- | --- | --- |
| COc1ccc(Cc2nc(-c3cnn(C(C)c4ccc(C(F)(F)F)cc4F)c3)cc(=O)[nH]2)cc1 (single isomer, unassigned) [Example 139, (S)- or (R)-6-(1-(1-(2-fluoro-4-(trifluoromethyl)phenyl)ethyl)-1H-pyrazol-4-yl)-2-(4-methoxybenzyl)pyrimidin-4(3H)-one] | 52.1 | 19.1 |
| Cc1nc(-c2cc([C@H](C)c3ccc(C(F)(F)F)cc3)[nH]n2)cc(=O)[nH]1 (single isomer, unassigned) [Example 23] |  | 29.3 |
| COc1cc(C(F)(F)F)ccc1[C@@H](C)n1cc(-c2cc(=O)[nH]c(C)n2)cn1 (single isomer, unassigned) [Example 2] | 43.9 | 35.3 |
| Cc1nc(-n2cc([C@](C)(O)c3ccc(C(F)(F)F)cc3F)cn2)cc(=O)[nH]1 (single isomer, unassigned) [Example 15] |  | 15.6 |
| Cc1nc(-n2cc([C@H](CO)c3ccc(C(F)(F)F)cc3F)cn2)cc(=O)[nH]1 (single isomer, unassigned) [Example 19] |  | 105 |
| Cc1nc(-n2cc([C@H](C)c3ccc(C(F)(F)F)cc3)cn2)cc(=O)[nH]1 (single isomer, unassigned) [Example 3] |  | 93 |
| Cc1nc(-c2cnn(C(C)c3ccc(C(F)(F)F)cc3F)c2)cc(=O)[nH]1 (single isomer, unassigned) [Example 135, (R)- or (S)-6-(1-(1-(2-fluoro-4-(trifluoromethyl)phenyl)ethyl)-1H-pyrazol-4-yl)-2-methylpyrimidin-4(3H)-one] |  | 109 |
| Cc1nc(-c2cnn(C(C)c3ccc(C(F)(F)F)cc3)c2C)cc(=O)[nH]1 (single isomer, unassigned) [Example 81, (R)- or (S)-2-methyl-6-(5-methyl-1-(1-(4-(trifluoromethyl)phenyl)ethyl)-1H-pyrazol-4-yl)pyrimidin-4(3H)-one] |  | 232 |
| Cc1nc(-n2ccc([C@H](C)c3ccc(C(F)(F)F)cc3)n2)cc(=O)[nH]1 (single isomer, unassigned) [Example 6] |  | 466 |
| COc1ccc(Cc2nc(-n3ccc(C(C)c4ccc(C(F)(F)F)cc4)n3)cc(=O)[nH]2)cc1OC (single isomer, unassigned) [Example 134, (R)- or (S)-2-(3,4-dimethoxybenzyl)-6-(3-(1-(4-(trifluoromethyl)phenyl)ethyl)-1H-pyrazol-1-yl)pyrimidin-4(3H)-one] |  | 110 |
| Cc1nc(-c2cnn(C(C)c3ccc(C(F)(F)F)cc3Cl)c2)cc(=O)[nH]1 (single isomer, unassigned) [Example 83, (R)- or (S)-6-(1-(1-(2-chloro-4-(trifluoromethyl)phenyl)ethyl)-1H-pyrazol-4-yl)-2-methylpyrimidin-4(3H)-one] | 6.2 |  |
| Cc1nc(-c2cnn(C(C)c3ccc(C(F)(F)F)cc3F)c2)cc(=O)[nH]1 (single isomer, unassigned) [Example 136, (S)- or (R)-6-(1-(1-(2-fluoro-4-(trifluoromethyl)phenyl)ethyl)-1H-pyrazol-4-yl)-2-methylpyrimidin-4(3H)-one] | 18.3 | 11.1 |
| Cc1nc(-n2cc(C3(C)OCc4cc(C(F)(F)F)ccc43)cn2)cc(=O)[nH]1 (single isomer, unassigned) [Example 27] |  | 98 |
| Cc1nc(-c2cnn(C(C)c3ccc(C4CC4)cc3C)c2)cc(=O)[nH]1 (single isomer, unassigned) [Example 94, (S)- or (R)-6-(1-(1-(4-cyclopropyl-2-methylphenyl)ethyl)-1H-pyrazol-4-yl)-2-methylpyrimidin-4(3H)-one] | 40.8 |  |
| COc1ccc(Cc2nc(-n3cc(C(C)c4ccc(C(F)(F)F)cc4)cn3)cc(=O)[nH]2)cc1OC (centres unmarked) [Example 137, 2-(3,4-dimethoxybenzyl)-6-(4-(1-(4-(trifluoromethyl)phenyl)ethyl)-1H-pyrazol-1-yl)pyrimidin-4(3H)-one] | 1.3 | 0.6 |

— patent US10287269B2, “Pyrazolyl pyrimidinone compounds as PDE2 inhibitors” (Merck Sharp & Dohme Corp., priority 2015, dated 2019)
